Earlier results on one compound are cited in US20020177614A1, “Methods for treating nuerodegenerative diseases including alzheimer's” (priority 2001, published 2002).

Structures are written as SMILES.

The test system of the series is Diphtheria and Pseudomonas toxins. As to conditions: several bacterial ADP-ribosylating toxins, including Diphtheria and Pseudomonas toxins.

As for `NC(=O)c1cccnc1` [nicotinamide], the “effect on bacterial ADP-ribosylating toxins” value is on record as “prevent or reverse the effects”.
